Measured values as given in PMC6326523, “A high-throughput screen to identify novel small molecule inhibitors of the Werner Syndrome Helicase-Nuclease (WRN)” (PLoS ONE, 2019).

How the values were obtained:
[1] = biological target: T1, full-length WRN helicase (Homo sapiens, UniProt Q14191); assay: Radiometric helicase inhibitor reversibility assay (100-fold dilution); type: biochemical; parameters: key to Reversibility: (-) = irreversible; (+) = minimally reversible; (++) = partially reversible; (+++) = reversible; conditions: for Reversibility: WRN 100 nM preincubated at 10-fold IC50, diluted 100-fold, unwinding 0-16 min; for Reversibility of inhibition (in words): full-length WRN
T1 construct: Full length recombinant WRN [18], BLM [19], and FANCJ [20] proteins were purified from insect cells; made in house; host or cells: insect cells
T1 sequence (Q14191 whole entry): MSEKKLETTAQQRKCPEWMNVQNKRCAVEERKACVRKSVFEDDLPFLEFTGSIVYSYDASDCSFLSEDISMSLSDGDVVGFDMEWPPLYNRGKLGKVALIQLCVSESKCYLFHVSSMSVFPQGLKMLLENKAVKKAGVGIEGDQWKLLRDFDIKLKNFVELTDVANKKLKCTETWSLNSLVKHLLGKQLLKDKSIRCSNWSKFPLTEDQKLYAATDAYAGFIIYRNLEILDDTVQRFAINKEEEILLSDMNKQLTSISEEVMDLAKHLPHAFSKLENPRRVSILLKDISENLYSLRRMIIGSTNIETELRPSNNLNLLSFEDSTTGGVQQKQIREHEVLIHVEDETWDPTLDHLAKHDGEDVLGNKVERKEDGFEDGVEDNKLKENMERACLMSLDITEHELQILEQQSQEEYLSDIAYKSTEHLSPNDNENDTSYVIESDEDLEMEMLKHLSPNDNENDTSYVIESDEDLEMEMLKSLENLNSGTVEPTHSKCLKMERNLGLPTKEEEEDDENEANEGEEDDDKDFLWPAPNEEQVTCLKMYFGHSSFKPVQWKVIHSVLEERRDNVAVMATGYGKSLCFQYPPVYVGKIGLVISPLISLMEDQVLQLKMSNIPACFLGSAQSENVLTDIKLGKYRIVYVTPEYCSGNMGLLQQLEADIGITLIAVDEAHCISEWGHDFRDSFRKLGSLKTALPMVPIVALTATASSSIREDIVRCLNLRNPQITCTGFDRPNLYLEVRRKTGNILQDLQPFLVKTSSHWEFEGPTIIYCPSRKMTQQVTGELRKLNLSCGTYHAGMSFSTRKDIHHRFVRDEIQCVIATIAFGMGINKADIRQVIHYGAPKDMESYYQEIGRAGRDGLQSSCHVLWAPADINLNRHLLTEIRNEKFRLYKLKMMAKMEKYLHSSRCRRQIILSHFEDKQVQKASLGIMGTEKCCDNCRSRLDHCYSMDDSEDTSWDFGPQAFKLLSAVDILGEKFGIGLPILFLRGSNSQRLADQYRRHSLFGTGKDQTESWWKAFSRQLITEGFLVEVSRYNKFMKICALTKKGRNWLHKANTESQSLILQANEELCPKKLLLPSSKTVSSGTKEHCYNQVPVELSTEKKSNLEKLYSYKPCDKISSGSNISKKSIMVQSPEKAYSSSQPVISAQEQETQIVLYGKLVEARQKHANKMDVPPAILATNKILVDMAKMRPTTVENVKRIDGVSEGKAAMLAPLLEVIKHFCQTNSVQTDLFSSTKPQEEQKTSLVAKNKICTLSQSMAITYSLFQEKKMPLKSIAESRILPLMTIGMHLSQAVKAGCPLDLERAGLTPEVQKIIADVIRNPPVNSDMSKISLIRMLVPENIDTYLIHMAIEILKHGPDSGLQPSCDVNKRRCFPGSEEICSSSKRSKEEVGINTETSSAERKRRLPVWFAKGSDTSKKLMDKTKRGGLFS
Procedure: WRN (full length, 100 nM concentration) was incubated with each small molecule inhibitor at a concentration 10-fold higher than the IC50 for that inhibitor, in a 10 μL reaction at room temperature. 1.5 μL of this reaction was added to 148.5 μL of reaction salts with 2 mM ATP, 0.5 nM FORKR reducing the full length WRN concentration to 1 nM and the drug concentration to 10-fold less than its IC50. Reactions were placed at 37°C and 20 μL of reaction were removed at specific intervals (0–16 min) and quenched with 20 μL of 2X STOP dye containing EDTA, glycerol, bromphenol blue and xylene cyanol. Samples were electrophoresed for 1.5 hr at 200 V on a 12% non-denaturing PAGE gel in 1X TBE Buffer.
Eighteen compounds were selected based on potency of inhibition in both the screening and radiometric assays, and exclusion of compounds with undesired chemical features. For each compound, we performed titrations over a wide range of concentrations with a fixed concentration of full-length WRN protein (1 nM), and quantitated unwinding as a percentage of full-length WRN unwinding of the FORKR DNA substrate (0.5 nM) in the absence of compound (Fig 6A and 6B, S3 Fig). […] In addition to determining an IC50 value for each compound, we also conducted helicase assays to determine the reversibility of inhibition by each compound tested. Details of the assay can be found in the Materials and Methods section, but briefly 100 nM WRN was incubated with each compound at a concentration 10-fold higher than its IC50 value. The reaction was diluted 100-fold with the addition of DNA substrate (0.5 nM final concentration) and ATP (2 mM final concentration) and unwinding was measured (Fig 7A–7D, S4 Fig). Inhibition was either classified as reversible, partially reversible, minimally reversible, or irreversible based on the ability of helicase activity to recover after dilution of the compound 100-fold. Table 2 summarizes the IC50 values and reversibility for each compound and includes IC50 values obtained from the screens for comparison.

[2] = biological target: T2, GST-WRN500-946 helicase domain fragment (Homo sapiens, UniProt Q14191); assay: Confirmatory fluorometric helicase screen, PubChem AID 720497; type: biochemical; conditions: 20 nM GST-WRN500-946, 100 nM FORKF, NA = Not Active, read-out: IC50 (μM) Assay ID 720497
T2 construct: made in house; host or cells: insect cells
T2 sequence (Q14191 500-946): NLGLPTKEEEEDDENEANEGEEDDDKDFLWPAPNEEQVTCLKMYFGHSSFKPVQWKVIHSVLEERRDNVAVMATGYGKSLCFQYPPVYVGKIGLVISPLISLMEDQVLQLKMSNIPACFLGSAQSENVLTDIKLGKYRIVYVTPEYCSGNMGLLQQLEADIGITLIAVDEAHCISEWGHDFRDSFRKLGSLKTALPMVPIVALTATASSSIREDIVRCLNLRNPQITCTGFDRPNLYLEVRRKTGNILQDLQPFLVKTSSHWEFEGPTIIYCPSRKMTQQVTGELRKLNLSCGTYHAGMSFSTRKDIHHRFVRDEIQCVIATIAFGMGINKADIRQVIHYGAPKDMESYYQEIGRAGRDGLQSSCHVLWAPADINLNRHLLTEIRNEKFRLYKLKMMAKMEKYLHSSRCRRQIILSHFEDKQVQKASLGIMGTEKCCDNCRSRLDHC
Procedure: The structures of the members of this collection are available in the PubChem portal https://pubchem.ncbi.nlm.nih.gov/. For both the 350,000 small molecule collection and the LOPAC^1280 screens, 3 μL of GST-WRN500-946 or reaction buffer only were dispensed using a solenoid-valve nanoliter dispenser into a black 1536-well plate (Greiner). Twenty three nL of each serially diluted compound (0.08–50 μM for the LOPAC screen and 0.003–114 μM for the larger library screen) or control were added to each well using a Kalypsys pintool equipped with a 1536-pin array. Plates were incubated at room temperature for 15 min, followed by initiation of the reactions via the addition of 1 μL of substrate (100 nM FORKF and 2 mM ATP final concentrations). Plates were transferred to a ViewLux high-throughput CCD imager and fluorescence was measured in kinetic mode using an excitation filter of 525 nm and emission filter of 598 nm.
Zʹ factor, a measure for assay quality control was calculated using the formula Z′ = 1−(3σS^++3σS^−)∕|μS^+−μS^−| as described previously. In this formula, 3σS^+ represents 3 standard deviations from the mean of positive signals while 3σS^− represents 3 standard deviations from the mean of negative signals. μS^+ and μS^− represent the mean of positive signals and negative signals respectively. Percent activity was derived using in-house software (http://tripod.nih.gov/curvefit/). Dose-response curves were classified as described previously.
A collection of approximately 350,000 compounds is available for screening which has been assembled from multiple sources to provide diverse chemical scaffolds with known purity, identity and solubility. To perform the high-throughput screen of these compounds, we needed to produce approximately 50 milligrams of recombinant WRN helicase fragment. To accomplish this, we cloned the helicase domain fragment into several plasmids for either insect cell or bacterial expression to optimize expression and yield. We selected expression plasmids for insect cell expression with either a GST or MBP tag (image A in S1 Fig) and purified the protein (image B in S1 Fig). The GST-WRN500-946 fragment isolated from insect cells was used in the high throughput screen with the conditions described in Fig 2C (20 nM GST-WRN500-946, 100 nM FORKF DNA substrate) and a summary of the results can be found on PubChem (National Center for Biotechnology Information. PubChem BioAssay Database; Assay Identifier (AID) = 651768, https://pubchem.ncbi.nlm.nih.gov/bioassay/651768). […] To verify the active compounds, approximately 600 hit molecules were retested in a confirmatory screen also found on PubChem (National Center for Biotechnology Information. PubChem AID = 720497, https://pubchem.ncbi.nlm.nih.gov/bioassay/720497). Of these, a little less than four hundred compounds were confirmed as active compounds.

[3] = tested on: Hematopoietic Protein Tyrosine Phosphatase (HePTP); parameters: method as in PMID 22070201; conditions: separate high-throughput screen; cited from earlier work
[4] = tested on: polymerases; parameters: method as in PubChem; conditions: review of PubChem data from previously-conducted screens; ref PubChem; cited from earlier work
[5] = tested on: BLM helicase fragment; parameters: method as in PubChem; conditions: review of PubChem data from previously-conducted screens; ref PubChem; cited from earlier work

Row | Compound | Reversibility [1] | IC50 [2] [µM] | Reversibility of inhibition (in words) [1] | Inhibition of HePTP [3] | Activity against polymerases in high-throughput screens [4] | Activity against BLM helicase fragment in high-throughput screens [5]
1 | Cc1ccc(-c2csc(NS(=O)(=O)c3cccc(F)c3)n2)o1 [MLS002251300-02] | ++ | 24.1 |  |  |  | 
2 | COc1ccc2nc(O)c(-c3noc(-c4ccc(F)cc4)n3)cc2c1 [NCGC00029283-02] | ++ |  | at least partially reversible | inhibited | some activity | no activity
3 | COc1ccc2nc(O)c(-c3noc(-c4ccccc4)n3)cc2c1 [NCGC00063279-02] | +++ | 21.5 | at least partially reversible | inhibited | some activity | no activity
